Results published in the supplement of paper PMC10307832.

Legend:
Test in all cases: relative viability (nuclei count vs DMSO), 5 days (fraction); higher = more cells survive
[1] = test system: CAL-12T
Outline: (§1)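 Each reported value is a median over duplicate plates. It expresses relative viability: treated-well nuclei count divided by vehicle-well nuclei count. Lung cancer cell lines in 1536-well plates were dosed by pin tool a day after seeding, alone with one drug or with a fixed anchor-drug dose plus five library-drug doses (not always all listed) in √10 steps, and nuclei were counted after 5 days.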

[2] = test system: NCI-H1666
Outline: as §1

[3] = test system: NCI-H1975
Outline: as §1

[4] = test system: NCI-H1755
Outline: as §1

[5] = test system: NCI-H441
Outline: as §1

[6] = test system: ChaGo-K-1
Outline: as §1

[7] = test system: HCC-15
Outline: as §1

[8] = test system: COR-L 105
Outline: as §1

[9] = test system: NCI-H2085
Outline: as §1

[10] = test system: NCI-H2126
Outline: as §1

[11] = test system: NCI-H3122
Outline: as §1

COc1cc(N2CCC(C(N)=O)CC2)ccc1Nc1nc(N)c(Cl)c(Nc2ccccc2S(=O)(=O)C(C)C)n1 [HG-5-88-01] + CC1(C)CCC(c2ccc(Cl)cc2)=C(CN2CCN(c3ccc(C(=O)NS(=O)(=O)c4ccc(N[C@H](CCN5CCOCC5)CSc5ccccc5)c(S(=O)(=O)C(F)(F)F)c4)cc3)CC2)C1 [Navitoclax] (partner 0.5 µM)
relative viability ([1]; first compound 0.04 µM): 1.26
relative viability ([1]; first compound 0.1265 µM): 1.15
relative viability ([1]; first compound 0.4 µM): 1.18
relative viability ([1]; first compound 1.265 µM): 1.14
relative viability ([1]; first compound 4 µM): 1.02
relative viability ([2]; first compound 0.04 µM): 1.14
relative viability ([2]; first compound 0.1265 µM): 1.01
relative viability ([2]; first compound 0.4 µM): 1.01
relative viability ([2]; first compound 1.265 µM): 0.877
relative viability ([2]; first compound 4 µM): 0.603
relative viability ([3]; first compound 0.04 µM): 1.13
relative viability ([3]; first compound 0.1265 µM): 1.15
relative viability ([3]; first compound 0.4 µM): 1.09
relative viability ([3]; first compound 1.265 µM): 0.858
relative viability ([3]; first compound 4 µM): 0.352
relative viability ([4]; first compound 0.1265 µM): 0.991
relative viability ([4]; first compound 0.4 µM): 1.01
relative viability ([4]; first compound 1.265 µM): 1.01
relative viability ([4]; first compound 4 µM): 1.01
relative viability ([5]; first compound 0.04 µM): 0.661
relative viability ([5]; first compound 0.1265 µM): 0.675
relative viability ([5]; first compound 0.4 µM): 0.714
relative viability ([5]; first compound 1.265 µM): 0.609
relative viability ([5]; first compound 4 µM): 0.679
relative viability ([6]; first compound 0.04 µM): 1.05
relative viability ([6]; first compound 0.1265 µM): 1.09
relative viability ([6]; first compound 0.4 µM): 0.726
relative viability ([6]; first compound 1.265 µM): 1.12
relative viability ([6]; first compound 4 µM): 0.762
relative viability ([7]; first compound 0.04 µM): 0.702
relative viability ([7]; first compound 0.1265 µM): 0.74
relative viability ([7]; first compound 0.4 µM): 0.672
relative viability ([7]; first compound 1.265 µM): 0.723
relative viability ([7]; first compound 4 µM): 0.464
relative viability ([8]; first compound 0.04 µM): 0.644
relative viability ([8]; first compound 0.1265 µM): 0.833
relative viability ([8]; first compound 0.4 µM): 0.838
relative viability ([8]; first compound 1.265 µM): 0.645
relative viability ([8]; first compound 4 µM): 0.809
relative viability ([9]; first compound 0.04 µM): 1.2
relative viability ([9]; first compound 0.1265 µM): 1.26
relative viability ([9]; first compound 0.4 µM): 1.06
relative viability ([9]; first compound 1.265 µM): 0.873
relative viability ([9]; first compound 4 µM): 1.13
relative viability ([10]; first compound 0.04 µM): 0.88
relative viability ([10]; first compound 0.1265 µM): 0.882
relative viability ([10]; first compound 0.4 µM): 0.753
relative viability ([10]; first compound 1.265 µM): 0.84
relative viability ([10]; first compound 4 µM): 0.794
relative viability ([11]; first compound 0.04 µM): 0.905
relative viability ([11]; first compound 0.1265 µM): 0.611
relative viability ([11]; first compound 0.4 µM): 0.444
